Measured values: PubChem BioAssay (NCI)
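Test compounds were applied to cells in 96-well plates for 48 hours at 5 doses. GI50 marks 50% less growth. At the TGI there is no net growth.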

Assays:
Experiment in all cases: DTP human tumour cell line panel, 48 h
HL-60(TB) leukemia = tested on: HL-60(TB) leukemia
MALME-3M melanoma = tested on: MALME-3M melanoma
SF-295 CNS = tested on: SF-295 CNS
HCT-15 colon = tested on: HCT-15 colon
UACC-257 melanoma = tested on: UACC-257 melanoma
K-562 leukemia = tested on: K-562 leukemia
TK-10 renal = tested on: TK-10 renal
NCI-H226 lung = tested on: NCI-H226 lung
MCF7 breast = tested on: MCF7 breast
DU-145 prostate = tested on: DU-145 prostate
HCT-116 colon = tested on: HCT-116 colon
SK-MEL-28 melanoma = tested on: SK-MEL-28 melanoma
OVCAR-3 ovarian = tested on: OVCAR-3 ovarian
A498 renal = tested on: A498 renal
OVCAR-5 ovarian = tested on: OVCAR-5 ovarian
SNB-19 CNS = tested on: SNB-19 CNS
NCI/ADR-RES ovarian = tested on: NCI/ADR-RES ovarian
HOP-92 NSCLC = tested on: HOP-92 NSCLC
PC-3 prostate = tested on: PC-3 prostate
SK-OV-3 ovarian = tested on: SK-OV-3 ovarian
786-0 renal = tested on: 786-0 renal
A549 NSCLC = tested on: A549 NSCLC
SN12C renal = tested on: SN12C renal
NCI-H460 lung = tested on: NCI-H460 lung
SF-539 CNS = tested on: SF-539 CNS
U251 CNS = tested on: U251 CNS
CAKI-1 renal = tested on: CAKI-1 renal
SNB-75 CNS = tested on: SNB-75 CNS
OVCAR-4 ovarian = tested on: OVCAR-4 ovarian
NCI-H23 lung = tested on: NCI-H23 lung
M14 melanoma = tested on: M14 melanoma
BT-549 breast = tested on: BT-549 breast
EKVX NSCLC = tested on: EKVX NSCLC
CCRF-CEM leukemia = tested on: CCRF-CEM leukemia
RXF 393 renal = tested on: RXF 393 renal
NCI-H522 lung = tested on: NCI-H522 lung
IGROV1 ovarian = tested on: IGROV1 ovarian
SF-268 CNS = tested on: SF-268 CNS
SW-620 colon = tested on: SW-620 colon
SR leukemia = tested on: SR leukemia
MDA-MB-231 breast = tested on: MDA-MB-231 breast
MOLT-4 leukemia = tested on: MOLT-4 leukemia
RPMI-8226 leukemia = tested on: RPMI-8226 leukemia
UO-31 renal = tested on: UO-31 renal
COLO 205 colon = tested on: COLO 205 colon
UACC-62 melanoma = tested on: UACC-62 melanoma
HT29 colon = tested on: HT29 colon
HOP-62 NSCLC = tested on: HOP-62 NSCLC
HCC-2998 colon = tested on: HCC-2998 colon
OVCAR-8 ovarian = tested on: OVCAR-8 ovarian
HS 578T breast = tested on: HS 578T breast
ACHN renal = tested on: ACHN renal
LOX IMVI melanoma = tested on: LOX IMVI melanoma
SK-MEL-5 melanoma = tested on: SK-MEL-5 melanoma
T-47D breast = tested on: T-47D breast
MDA-MB-435 = tested on: MDA-MB-435
KM12 colon = tested on: KM12 colon
SK-MEL-2 melanoma = tested on: SK-MEL-2 melanoma

## COc1ccc(-c2oc3cc(O)cc(O)c3c(=O)c2OC)cc1O
HL-60(TB) leukemia
  GI50: 445 nM
  TGI: 1100 nM
MALME-3M melanoma
  GI50: > 16500 nM
  TGI: > 16500 nM
SF-295 CNS
  GI50: 2300 nM
  TGI: 8660 nM
HCT-15 colon
  GI50: 749 nM
  TGI: > 16500 nM
UACC-257 melanoma
  GI50: > 16500 nM
  TGI: > 16500 nM
K-562 leukemia
  GI50: 613 nM
  TGI: > 16500 nM
TK-10 renal
  GI50: 7750 nM
  TGI: > 16500 nM
NCI-H226 lung
  GI50: > 16500 nM
  TGI: > 16500 nM
MCF7 breast
  GI50: 762 nM
  TGI: > 16500 nM
DU-145 prostate
  GI50: 1100 nM
  TGI: > 16500 nM
HCT-116 colon
  GI50: 646 nM
  TGI: > 16500 nM
SK-MEL-28 melanoma
  GI50: 1120 nM
  TGI: > 16500 nM
OVCAR-3 ovarian
  GI50: 490 nM
  TGI: 2620 nM
A498 renal
  GI50: 3500 nM
  TGI: 14600 nM
OVCAR-5 ovarian
  GI50: 8690 nM
  TGI: > 16500 nM
SNB-19 CNS
  GI50: 1200 nM
  TGI: > 16500 nM
NCI/ADR-RES ovarian
  GI50: 583 nM
  TGI: 6840 nM
HOP-92 NSCLC
  GI50: 855 nM
  TGI: > 16500 nM
PC-3 prostate
  GI50: 2740 nM
  TGI: > 16500 nM
SK-OV-3 ovarian
  GI50: 1520 nM
  TGI: > 16500 nM
786-0 renal
  GI50: 4870 nM
  TGI: > 16500 nM
A549 NSCLC
  GI50: 6270 nM
  TGI: > 16500 nM
SN12C renal
  GI50: 4250 nM
  TGI: > 16500 nM
NCI-H460 lung
  GI50: 663 nM
  TGI: > 16500 nM
SF-539 CNS
  GI50: 495 nM
  TGI: 1720 nM
U251 CNS
  GI50: 631 nM
  TGI: 6050 nM
CAKI-1 renal
  GI50: 3260 nM
  TGI: > 16500 nM
SNB-75 CNS
  GI50: 406 nM
  TGI: 3450 nM
OVCAR-4 ovarian
  GI50: 3160 nM
  TGI: > 16500 nM
NCI-H23 lung
  GI50: 945 nM
  TGI: > 16500 nM
M14 melanoma
  GI50: 509 nM
  TGI: > 16500 nM
BT-549 breast
  GI50: 850 nM
  TGI: > 16500 nM
EKVX NSCLC
  GI50: 6420 nM
  TGI: > 16500 nM
CCRF-CEM leukemia
  GI50: 853 nM
  TGI: > 16500 nM
RXF 393 renal
  GI50: 1210 nM
  TGI: 5990 nM
NCI-H522 lung
  GI50: 446 nM
  TGI: 1430 nM
IGROV1 ovarian
  GI50: 4160 nM
  TGI: > 16500 nM
SF-268 CNS
  GI50: 1400 nM
  TGI: > 16500 nM
SW-620 colon
  GI50: 665 nM
  TGI: > 16500 nM
SR leukemia
  GI50: 627 nM
  TGI: > 16500 nM
MDA-MB-231 breast
  GI50: 1220 nM
  TGI: > 16500 nM
MOLT-4 leukemia
  GI50: 743 nM
  TGI: > 16500 nM
RPMI-8226 leukemia
  GI50: 726 nM
  TGI: > 16500 nM
UO-31 renal
  GI50: 1860 nM
  TGI: > 16500 nM
COLO 205 colon
  GI50: > 16500 nM
  TGI: > 16500 nM
UACC-62 melanoma
  GI50: 880 nM
  TGI: > 16500 nM
HT29 colon
  GI50: 5830 nM
  TGI: > 16500 nM
HOP-62 NSCLC
  GI50: 814 nM
  TGI: > 16500 nM
HCC-2998 colon
  GI50: 4630 nM
  TGI: > 16500 nM
OVCAR-8 ovarian
  GI50: 1030 nM
  TGI: > 16500 nM
HS 578T breast
  GI50: 762 nM
  TGI: > 16500 nM
ACHN renal
  GI50: 1250 nM
  TGI: > 16500 nM
LOX IMVI melanoma
  GI50: 1020 nM
  TGI: > 16500 nM
SK-MEL-5 melanoma
  GI50: 724 nM
  TGI: > 16500 nM

## CCOP(=O)(OCC)OC[C@]12CC[C@@H](C)[C@H](C)C1C1=CC[C@@H]3[C@@]4(C)CCCNC(C)(C)[C@@H]4CC[C@@]3(C)[C@]1(C)CC2 (some centres not stated)
HL-60(TB) leukemia
  GI50: 1670 nM
  TGI: 3470 nM
MALME-3M melanoma
  GI50: 1650 nM
  TGI: 3120 nM
SF-295 CNS
  GI50: 1780 nM
  TGI: 3340 nM
HCT-15 colon
  GI50: 1680 nM
  TGI: 3170 nM
UACC-257 melanoma
  GI50: 2130 nM
  TGI: 4950 nM
K-562 leukemia
  GI50: 1570 nM
  TGI: 3320 nM
TK-10 renal
  GI50: 3490 nM
  TGI: 12800 nM
NCI-H226 lung
  GI50: 4980 nM
  TGI: 23300 nM
MCF7 breast
  GI50: 1590 nM
  TGI: 3170 nM
T-47D breast
  GI50: 1600 nM
  TGI: 3780 nM
DU-145 prostate
  GI50: 1940 nM
  TGI: 3710 nM
HCT-116 colon
  GI50: 1690 nM
  TGI: 3210 nM
MDA-MB-435
  GI50: 1760 nM
  TGI: 3310 nM
KM12 colon
  GI50: 1910 nM
  TGI: 3570 nM
SK-MEL-28 melanoma
  GI50: 1690 nM
  TGI: 3110 nM
OVCAR-3 ovarian
  GI50: 1720 nM
  TGI: 3330 nM
A498 renal
  GI50: 5080 nM
  TGI: 21800 nM
OVCAR-5 ovarian
  GI50: 1680 nM
  TGI: 3090 nM
SNB-19 CNS
  GI50: 1690 nM
  TGI: 3240 nM
NCI/ADR-RES ovarian
  GI50: 1790 nM
  TGI: 3390 nM
HOP-92 NSCLC
  GI50: 1510 nM
  TGI: 4510 nM
PC-3 prostate
  GI50: 1570 nM
  TGI: 3150 nM
SK-OV-3 ovarian
  GI50: 3270 nM
  TGI: 10600 nM
786-0 renal
  GI50: 1510 nM
  TGI: 2980 nM
A549 NSCLC
  GI50: 1780 nM
  TGI: 3540 nM
SN12C renal
  GI50: 1530 nM
  TGI: 2940 nM
NCI-H460 lung
  GI50: 1830 nM
  TGI: 3460 nM
SK-MEL-2 melanoma
  GI50: 4800 nM
  TGI: 20700 nM
SF-539 CNS
  GI50: 1630 nM
  TGI: 3040 nM
U251 CNS
  GI50: 1650 nM
  TGI: 3350 nM
CAKI-1 renal
  GI50: 1440 nM
  TGI: 2790 nM
SNB-75 CNS
  GI50: 2830 nM
  TGI: 15600 nM
OVCAR-4 ovarian
  GI50: 2270 nM
  TGI: 6130 nM
M14 melanoma
  GI50: 1740 nM
  TGI: 3320 nM
BT-549 breast
  GI50: 4490 nM
  TGI: 17600 nM
EKVX NSCLC
  GI50: 1530 nM
  TGI: 2960 nM
CCRF-CEM leukemia
  GI50: 2530 nM
  TGI: 8140 nM
RXF 393 renal
  GI50: 1310 nM
  TGI: 2690 nM
NCI-H522 lung
  GI50: 1840 nM
  TGI: 3910 nM
IGROV1 ovarian
  GI50: 1570 nM
  TGI: 3000 nM
SF-268 CNS
  GI50: 2510 nM
  TGI: 9240 nM
SW-620 colon
  GI50: 1820 nM
  TGI: 3450 nM
SR leukemia
  GI50: 1410 nM
  TGI: 3640 nM
MDA-MB-231 breast
  GI50: 1700 nM
  TGI: 3190 nM
MOLT-4 leukemia
  GI50: 1520 nM
  TGI: 3510 nM
RPMI-8226 leukemia
  GI50: 2200 nM
  TGI: 5700 nM
UO-31 renal
  GI50: 1440 nM
  TGI: 2930 nM
COLO 205 colon
  GI50: 2060 nM
  TGI: 4230 nM
UACC-62 melanoma
  GI50: 1550 nM
  TGI: 3110 nM
HT29 colon
  GI50: 1880 nM
  TGI: 4090 nM
HOP-62 NSCLC
  GI50: 1950 nM
  TGI: 3930 nM
HCC-2998 colon
  GI50: 1850 nM
  TGI: 3420 nM
OVCAR-8 ovarian
  GI50: 1900 nM
  TGI: 3960 nM
HS 578T breast
  GI50: 2680 nM
  TGI: 8090 nM
ACHN renal
  GI50: 1720 nM
  TGI: 3110 nM
LOX IMVI melanoma
  GI50: 1210 nM
  TGI: 2560 nM
SK-MEL-5 melanoma
  GI50: 1690 nM
  TGI: 3110 nM
